In patent US8841233B2, “Herbicidal compositions comprising 4-amino-3-chloro-5-fluoro-6-(4-chloro-2-fluoro-3-methoxyphenyl) pyridine-2-carboxylic acid or a derivative thereof and 4-hydroxyphenyl-pyruvate dioxygenase (HPPD) inhibitors” (Dow Agrosciences LLC, priority 2012, dated 2014):

What was measured:
SETVI = assay: Pre-emergence soil-applied weed control, greenhouse (Example III); format: in vivo, Setaria viridis (L.) Beauv.
Description: (§1) Evaluation of Pre-emergence Soil-Applied Herbicidal Mixtures for Weed Control
(§2) Seeds or nutlets of the desired test plant species were planted in a soil matrix prepared by mixing a loam soil (32 percent silt, 23 percent clay, and 45 percent sand, with a pH of about 6.5 and an organic matter content of about 1.9 percent) and calcareous grit in an 80 to 20 ratio. The soil matrix was contained in plastic pots with a volume of 1 quart and a surface area of 83.6 square centimeters (cm^2).
(§3) Treatments consisted of the benzyl ester of 4-amino-3-chloro-5-fluoro-6-(4-chloro-2-fluoro-3-methoxy-phenyl)pyridine-2-carboxylic acid (compound A) formulated as an SC (suspension concentrate) and various herbicidal components alone and in combination. Forms of compound A were applied on an acid equivalent basis.
(§4) Other herbicidal components were applied on an acid equivalent or active ingredient basis and included the 4-hydroxyphenyl pyruvate dioxygenase (HPPD)-inhibiting herbicide, isoxaflutole, formulated as Balance Pro®.
(§5) Treatment requirements were calculated based upon the rates being tested, the concentration of active ingredient or acid equivalent in the formulation, and a 12 mL application volume at a rate of 187 L/ha.
(§6) For treatments comprised of formulated compounds, measured amounts of compounds were placed individually in 25 mL glass vials and diluted in a volume of 1.25% (v/v) Agri-Dex® crop oil concentrate (COC) to obtain 12× stock solutions. […] Application solutions were prepared by adding an appropriate amount of each stock solution (e.g., 1 mL) and diluted to the appropriate final concentrations with the addition of 10 mL of an aqueous mixture of 1.25% (v/v) COC so that the final spray solutions contained 1.25% (v/v) COC.
(§7) All stock solutions and applications solutions were visually inspected for compound compatibility prior to application. Spray solutions were applied to the soil with an overhead Mandel track sprayer equipped with a 8002E nozzles calibrated to deliver 187 L/ha over an application area of 0.503 m^2 at a spray height of 18 inches (46 cm) above average pot height. Control pots were sprayed in the same manner with the solvent blank.
(§8) The treated and control pots were placed in a greenhouse and top watered as needed. When required to ensure good germination and healthy plants, a fungicide treatment and/or other chemical or physical treatment was applied. […] After approximately 4 weeks, the condition of the test plants as compared with that of the untreated plants was determined visually and scored on a scale of 0 to 100 percent where 0 corresponds to no injury or growth inhibition and 100 corresponds to complete kill. […]

IPOHE = assay: as above; format: in vivo, Ipomoea hederacea (L.) Jacq.
Description: as §1, §2, §3, §4, §5, §6, §7, §8

LEFCH = assay: Post-emergence foliar-applied weed control, greenhouse (Example I); format: in vivo, Leptochloa chinensis (L.) Nees
Description: Evaluation of Post-emergence Foliar-Applied Herbicidal Mixtures for Weed Control in Direct Seeded Rice
Seeds or nutlets of the desired test plant species were planted in a soil matrix prepared by mixing a loam or sandy loam soil (e.g., 28.6 percent silt, 18.8 percent clay, and 52.6 percent sand, with a pH of about 5.8 and an organic matter content of about 1.8 percent) and calcareous grit in an 80 to 20 ratio. The soil matrix was contained in plastic pots with a volume of 1 quart and a surface area of 83.6 square centimeters (cm^2). When required to ensure good germination and healthy plants, a fungicide treatment and/or other chemical or physical treatment was applied. The plants were grown for 8-22 days in a greenhouse with an approximate 14 h photoperiod which was maintained at about 29° C. during the day and 26° C. during the night. Nutrients (Peters Excel® 15-5-15 5-Ca 2-Mg and iron chelate) were applied in the irrigation solution as needed and water was added on a regular basis. Supplemental lighting was provided with overhead metal halide 1000-Watt lamps as necessary. The plants were employed for testing when they reached the first through fourth true leaf stage. […]
as §5
For treatments comprised of formulated compounds, measured amounts of compounds were placed individually in 25 mL glass vials and diluted in a volume of 1.25% (v/v) Agri-Dex® crop oil concentrated to obtain 12× stock solutions. […]
For treatments comprised of formulated and technical compounds, weighed amounts of the technical materials were placed individually in 25 mL glass vials and dissolved in a volume of 97:3 v/v acetone/DMSO to obtain 12× stock solutions, and measured amounts of the formulated compounds were placed individually in 25 mL glass vials and diluted in a volume of 1.5% (v/v) crop oil concentrate or water to obtain 12× stock solutions. […]

SMILES | Visual Weed Control (%) - 32 DAA SETVI Obs (SETVI; 16 gae/ha) [%] | Visual Weed Control (%) - 32 DAA SETVI Obs (SETVI; 32 gae/ha) [%] | Visual Weed Control (%) - 32 DAA IPOHE Obs (IPOHE; 8 gae/ha) [%] | Visual Weed Control (%) - 32 DAA IPOHE Obs (IPOHE; 16 gae/ha) [%] | Visual Weed Control (%) - 32 DAA IPOHE Obs (IPOHE; 32 gae/ha) [%] | Visual Weed Control (%) - 21 DAA LEFCH Obs (LEFCH; 17.5 gae/ha) [%] | Visual Weed Control (%) - 21 DAA LEFCH Obs (LEFCH; 35 gae/ha) [%]
COc1c(Cl)ccc(-c2nc(C(=O)OCc3ccccc3)c(Cl)c(N)c2F)c1F [Compound A Benzyl Ester, benzyl ester of 4-amino-3-chloro-5-fluoro-6-(4-chloro-2-fluoro-3-methoxy-phenyl)pyridine-2-carboxylic acid] | 0 | 13 | 5 | 10 | 10 |  | 
COc1c(Cl)ccc(-c2nc(C(=O)O)c(Cl)c(N)c2F)c1F [Compound A Acid, 4-amino-3-chloro-6-(4-chloro-2-fluoro-3-methoxyphenyl)-5-fluoropyridine-2-carboxylic acid] |  |  |  |  |  | 10 | 60
